{"source": "patent US12290071B2", "about": "“Performic acid biofilm prevention for industrial CO2 scrubbers” (ECOLAB USA INC., priority 2016, dated 2025)", "key": {"[1]": {"system": "broad spectrum of microorganisms", "details": "background statement; cited from earlier work"}, "[2]": {"system": "Pseudomonas aeruginosa ATCC 15442", "assay": "Biocidal performance of performic acid, log reduction in synthetic hard water", "type": "cell-based", "details": "0.5, 1.0, 2.0 ppm PFA; 10 minutes and 4 hours contact; 25° C.", "method": "Additional biocidal performance of performic acid was evaluated for log reduction of Pseudomonas aeruginosa as shown in Table 2."}, "Pseudomonas biofilm": {"system": "Pseudomonas biofilm", "assay": "Pseudomonas biofilm on polycarbonate coupons, PFA compared with another peroxyacid", "type": "cell-based, Pseudomonas aeruginosa", "details": "50 ppm PFA vs 200 ppm PAA, hard water pH 7.71, 3 hrs exposure", "method": "Additional biocidal performance of performic acid was evaluated for log reduction of Pseudomonas aeruginosa in comparison to another peroxyacid. A Pseudomonas biofilm was treated with 50 ppm active of PFA and compared to efficacy treated with 200 ppm PAA. Pseudomonas biofilms were grown in a CDC biofilm reactor on a poly carbonate coupons. Appropriate concentration of the treatment substance were diluted in hard water at pH 7.71 diluent. Test chemicals were exposed for 3 hrs after which they were treated with 16 mLs of thiosulfate to neutralize any oxidants. The untreated control and treated Pseudomonas were plated on a TGE media and incubated at 35° C. for 48 hrs. A […] reduction was monitored by colony counting of Pseudomonas on plates."}, "[3]": {"system": "P. aeruginosa ATCC 15442 biofilm", "assay": "Reduction of P. aeruginosa biofilm at different exposure times (ASTM E2562-12 / E2871-12)", "type": "cell-based, Pseudomonas aeruginosa ATCC 15442", "details": "50 ppm PFA for 15 min to 3 hours vs 200 ppm POAA for 3 hours", "method": "Reduction of P. aeruginosa Biofilm Using Different Exposure Times of Peroxyformic Acid. P. aeruginosa ATCC 15442 biofilm was grown on the surface of 24 polycarbonate coupons following ASTM method E2562-12: Standard Test Method for Quantification of Pseudomonas aeruginosa Biofilm Grown with High Shear and Continuous Flow using CDC Biofilm Reactor. After 48 hours of biofilm establishment, the coupons were removed from the reactor and placed into individual centrifuge tubes. Three coupons per test condition were tested for disinfectant efficacy using ASTM method E2871-12: Standard Test Method for Evaluating Disinfectant Efficacy against Pseudomonas aeruginosa Biofilm Grown in CDC Biofilm Reactor using Single Tube Method. Sets of three coupons were exposed to 4 mL of 50 ppm PFA for exposure times of 15 minutes, 30 minutes, 1 hour, 2 hours and 3 hours, while coupons treated with 200 ppm POAA were exposed for 3 hours only. […] This was followed with a series of vortexing and sonicating steps to remove any biofilm from the coupon surface into the solution for plating and enumeration."}, "[4]": {"system": "biofilm fouling of CO2 scrubbers", "assay": "Field test of CO2 scrubbers in an ethanol fermentation plant", "details": "30 minute treatment at 75-100 ppm PFA, ambient temperature, 80 gallons per minute", "method": "Removal and/or prevention of biofilm fouling of CO2 scrubbers was tested with peroxyformic acid. Such scrubbers were evaluated in an ethanol fermentation plant which conventionally employs CIP cleaning process with hot caustic recirculated through the system every few weeks to clean any biofilm which has accumulated since the prior CIP cleaning cycle. This problem to be solved is the prevention of biofilm in the systems instead of removal of the biofilm after the same has been formed. The prevention of biofilm is more desirable than removal, as biofilm scuffs off and undesirably plugs lines within the system and in an fermentation facility the stream of reclaimed ethanol that goes back into the process may undesirably carry microbes from the biofilm. As a result, the use of performic acid was compared to the conventional CIP cleaning for efficacy. […]"}}, "data": [{"smiles": "CC(=O)OO", "note": "[Peracetic acid]", "values": [{"measurement": "concentration at which it is a good biocide", "setting": "[1]", "result": "greater than 80 part per million"}]}, {"smiles": "O=COO", "note": "[peroxyformic acid]", "values": [{"measurement": "biocidal efficacy (in words)", "setting": "[2]", "result": "beneficially efficacy"}, {"measurement": "reduction in Pseudomonas aeruginosa compared with peracetic acid (in words)", "setting": "Pseudomonas biofilm", "result": "substantially increased reduction in Pseudomonas aeruginosa"}, {"measurement": "anti-biofilm efficacy compared with POAA (in words)", "setting": "[3]", "result": "greater anti-biofilm efficacy with shorter exposure time and lower concentrations than POAA"}, {"measurement": "biofilm formation in CO2 scrubbers (in words)", "setting": "[4]", "result": "biofilm did not form"}]}]}
